Source: patent publication US11624022B2, “Preparation method for the plant-based nano corrosion inhibition bactericide for oilfield and application thereof” (Southwest Petroleum University, priority 2021, dated 2023)

How the values were obtained:
[1] = tested on: sulfate reducing bacteria (SRB); assay: Sterilization performance test (serial dilution counting of SRB); type: cell-based; settings: 60 mg/L, counted 24 hours later; for Number of SRB: no bactericide 2500000
Procedure: Before the test, all devices and glass containers were sterilized for 20 min at 121° C. The SRB strain was isolated from the formation water of an injection well in a shale gas field in China. SRB liquid medium was prepared according to NACE TMO194-94 standard.
The composition of the medium is as follows: Ig yeast powder, 0.1 g ascorbic acid, 0.2 g MgSO4·7H2O, 0.01 g K2HPO4, 10 g NaCl, 0.2 g (NH4)2Fe(SO4)2·6H2O, 4 mL sodium lactate, and 1000 mL deionized water. A portable pressure steam disinfection pot was used to sterilize the bacteria in the prepared medium. In the sterilization process, the temperature was kept at 120° C. for 15 min. It was then deoxidized with N2 for 2 h. 10% SRB was inoculated into the medium and placed in an incubator at 37° C. After 5 days, the number of SRB reached the peak value and remained stable.
Different bactericides were added into the cultured bacteria solution of 200 mL and counted 24 hours later.
Serial dilution method (triple repetition) was taken for the counting of SRB. Totally 10 dilution levels were provided. At each dilution level, there were three identical vials filled with 9 mL SRB medium. The measured sample of 1 mL was injected into a vial at the Level 0 and then shaken up. The 1 mL solution from the vial at the Level 0 was injected into a vial at the Level 1. The syringe for sampling the liquid each time was disposable to avoid affecting the final results. Similarly, the sample was diluted until the dilution reached Level 9. All vials were incubated at 35° C. for 14 days at a constant temperature.
The growth index should be determined according to the following principles: three dilution levels were selected from the dilution level at which negative vials appeared, and the number of positive vials was counted for each dilution level to obtain the index (When all the vials in a certain grade are negative, the previous grade is counted). The growth index (summarized according to 5.6.5.3 in SY/T 5329-1994) is obtained by multiplying the dilution factor 10^n of water sample (n is the number of dilutions before the index position). Check the corresponding bacteria count table and substitute the bacterial count detected by the index to get the content of this kind of bacteria in the water sample (Nr./mL).
The test results are shown in Table 1, in which the vials 1 to 10 are filled with 9 mL SRB medium (10^7). The dilution levels are numbered from Lev. 0 to Lev. 9. Take the measured sample of 1 mL into the Vial 1, indicating Level 0; take a new syringe and take 1 mL from Vial 1 to Vial 2, indicating Level 1; take a new syringe and take 1 mL from Vial 2 to Vial 3, indicating […]; the rest can be done in the same manner until 1 mL is taken from Vial 9 to Vial 10, indicating Level 9. “+” represents positive vial, and “−” represents negative vial.

[2] = Corrosion inhibition performance test (static uniform corrosion, SY/T 5273-2014); settings: 60 mg/L; N80 steel, corrosive solution pH 6.5, 37° C., 14 days
Procedure: The corrosive solution of 1 L was prepared, the pH was adjusted to 6.5, and the temperature was 37° C. at a normal pressure. The N80 steel specimens were processed with specifications of 30*15*3 and placed in corrosive solution. Three specimens were placed in each vial and different corrosion inhibitors were added respectively. The experiment lasted for 14 days.
After the test, the specimens were cleaned with stripping solution (100 ml hydrochloric acid+10 g hexamethylenetetramine+900 mL deionized water), then dehydrated by ethanol and blow-dried with N2. The determination method for static uniform corrosion inhibition rate was evaluated with referring to the Performance Index and Evaluation Method of Corrosion Inhibitor for Oilfield Produced Water Treatment (SY/T 5273-2014), the oil and gas industry standard of the People's Republic of China. The formulas of uniform corrosion rate and corrosion inhibition efficiency are as follows:
The corrosion inhibition test results are shown in Table 3, in which the corrosion inhibitors 1, 2 and 3 commonly used in oilfields are respectively the lauric acid imidazoline, abietic acid imidazoline and tetradecyl trimethyl ammonium bromide.

## O=CCCCC=O [Glutaraldehyde]
[1]
  Growth index: 200
  Sterilization rate: 64%
  Number of SRB: 900000 Nr./mL

## CCCCCCCCCCCCCC[N+](C)(C)C.[Br-] [Tetradecyl trimethyl ammonium bromide, tetradecyl trimethyl ammonium bromide]
[2]
  Corrosion inhibition efficiency: 90.9%

## CCCCCCCCCCCC[N+](C)(C)Cc1ccccc1.[Cl-] [Traditional bactericide 1227]
[1]
  Growth index: 210
  Sterilization rate: 40%
  Number of SRB: 1500000 Nr./mL

## abietic acid imidazoline
[2]
  Corrosion inhibition efficiency: 93.9%

## lauric acid imidazoline
[2]
  Corrosion inhibition efficiency: 93.3%
